Active and inactive are the calls of the source. The calls are words filed in the database; no cut-off is given here.
Columns and labels:
[1] = target: T1, Cadherin-2 (Homo sapiens) (UniProt P19022); assay: Inhibition of recombinant N-cadherin-Fc chimeric protein (unknown origin) homodimerization at 10 uM preincubated for 30 mins followed by N-cadherin-Fc addition by surface plasmon resonance analysis relative to control
T1 sequence (whole entry): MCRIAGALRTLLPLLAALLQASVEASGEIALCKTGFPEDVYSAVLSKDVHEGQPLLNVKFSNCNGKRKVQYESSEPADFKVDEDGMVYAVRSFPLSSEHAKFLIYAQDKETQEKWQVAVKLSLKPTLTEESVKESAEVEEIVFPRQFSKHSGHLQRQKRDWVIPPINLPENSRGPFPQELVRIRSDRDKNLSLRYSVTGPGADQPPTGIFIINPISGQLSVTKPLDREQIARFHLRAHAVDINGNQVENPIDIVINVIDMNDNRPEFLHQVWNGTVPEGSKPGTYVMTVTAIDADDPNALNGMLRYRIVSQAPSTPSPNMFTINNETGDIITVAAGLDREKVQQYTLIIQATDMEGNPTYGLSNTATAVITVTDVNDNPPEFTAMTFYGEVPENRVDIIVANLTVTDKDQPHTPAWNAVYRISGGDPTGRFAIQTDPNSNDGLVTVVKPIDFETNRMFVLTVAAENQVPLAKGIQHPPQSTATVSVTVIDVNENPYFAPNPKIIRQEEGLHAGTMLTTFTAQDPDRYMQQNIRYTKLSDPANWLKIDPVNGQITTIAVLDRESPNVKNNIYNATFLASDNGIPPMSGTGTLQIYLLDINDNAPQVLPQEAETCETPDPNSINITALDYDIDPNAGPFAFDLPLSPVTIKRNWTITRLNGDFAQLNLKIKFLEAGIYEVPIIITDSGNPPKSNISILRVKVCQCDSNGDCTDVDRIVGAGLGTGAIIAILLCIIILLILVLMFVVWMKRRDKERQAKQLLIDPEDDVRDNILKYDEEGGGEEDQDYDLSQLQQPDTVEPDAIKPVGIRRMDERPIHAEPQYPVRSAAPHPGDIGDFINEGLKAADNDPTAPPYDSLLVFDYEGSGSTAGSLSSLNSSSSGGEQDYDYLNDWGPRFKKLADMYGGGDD

[2] = target: T2, Cadherin-1 (Homo sapiens) (UniProt P12830); assay: Inhibition of E-cadherin-Fc chimeric protein binding to E-cadherin in human OAW42 cells at 2 mM preincubated for 1 hr followed by E-cadherin-Fc addition measured after 2 hrs by ELISA relative to control; format: cell-based; conditions: OAW-42
T2 sequence (whole entry): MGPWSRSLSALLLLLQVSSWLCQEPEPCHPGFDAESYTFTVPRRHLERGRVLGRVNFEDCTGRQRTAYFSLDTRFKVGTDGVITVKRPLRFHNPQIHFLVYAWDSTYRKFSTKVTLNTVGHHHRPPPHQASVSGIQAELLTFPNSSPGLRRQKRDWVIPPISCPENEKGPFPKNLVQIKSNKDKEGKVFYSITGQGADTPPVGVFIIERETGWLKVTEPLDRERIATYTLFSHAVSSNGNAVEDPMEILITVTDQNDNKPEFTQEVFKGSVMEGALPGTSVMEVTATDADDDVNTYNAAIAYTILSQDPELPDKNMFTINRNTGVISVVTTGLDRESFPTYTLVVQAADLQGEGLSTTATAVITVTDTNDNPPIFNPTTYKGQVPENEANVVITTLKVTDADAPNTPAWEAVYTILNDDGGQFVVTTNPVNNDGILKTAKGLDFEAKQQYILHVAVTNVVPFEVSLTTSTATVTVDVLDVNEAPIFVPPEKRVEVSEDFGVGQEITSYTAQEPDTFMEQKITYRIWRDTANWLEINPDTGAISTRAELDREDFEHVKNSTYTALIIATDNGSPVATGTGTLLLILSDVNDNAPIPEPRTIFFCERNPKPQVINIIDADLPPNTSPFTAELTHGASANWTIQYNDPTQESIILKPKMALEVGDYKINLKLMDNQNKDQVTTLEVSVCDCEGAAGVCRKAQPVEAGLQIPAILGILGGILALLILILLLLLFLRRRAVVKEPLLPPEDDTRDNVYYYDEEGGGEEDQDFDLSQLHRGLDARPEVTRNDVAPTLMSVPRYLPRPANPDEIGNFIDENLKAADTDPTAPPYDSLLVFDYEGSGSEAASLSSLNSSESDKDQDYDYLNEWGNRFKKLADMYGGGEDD

[3] = target: T1, Cadherin-2 (Homo sapiens); assay: Inhibition of N-cadherin-Fc chimeric protein binding to N-cadherin in human SKOV3 cells at 1 mM preincubated for 1 hr followed by N-cadherin-Fc addition measured after 2 hrs by ELISA relative to control; format: cell-based; conditions: SK-OV-3
[4] = target: T1, Cadherin-2 (Homo sapiens); assay: Inhibition of N-cadherin-Fc chimeric protein binding to N-cadherin in human SKOV3 cells at 2 mM preincubated for 1 hr followed by N-cadherin-Fc addition measured after 2 hrs by ELISA relative to control; format: cell-based; conditions: SK-OV-3
[5] = target: T2, Cadherin-1 (Homo sapiens); assay: Binding affinity to E-cadherin in human OAW42 cells assessed as effect on PI3K/Akt signalling activation by measuring phosphorylation of Akt at Ser-473 residue at 1 to 2 mM by immunoblot analysis; format: cell-based; conditions: OAW-42

SMILES | inhibition [1] [%] | inhibition [2] [%] | inhibition [3] | inhibition [4] [%] | Activity [5]
CC(=O)N[C@H]1CSSC[C@@H](C(N)=O)NC(=O)[C@H](C(C)C)NC(=O)[C@H](C)NC(=O)[C@H](Cc2c[nH]cn2)NC1=O | 28 | 30 | inactive | 50 | 
CC[C@H](C)[C@H](NC(=O)C[C@@H]1NC(=O)[C@H](CNC(=O)[C@@H](N)CC(=O)O)N(Cc2ccccc2)C1=O)C(=O)NC(C)(C)C | 55 | 50 | 65% | 84 | Active
